These results are taken from ChEMBL document CHEMBL3882729, “Receptor-type kinase modulators and methods of use” (2009).

The target in assay [1] is Vascular endothelial growth factor receptor 2 (Homo sapiens, UniProt P35968). The assay is described as follows: Inhibition of recombinant human N-terminal GST-fused KDR (D807 to V1356 residues) expressed in baculovirus infected […] insect Sf9 cells using poly-EY as substrate after 240 mins by luciferase coupled chemiluminescence assay.
Assay [2] concerns the target Ephrin type-A receptor 2 (Homo sapiens, UniProt P29317). The assay is described as follows: Inhibition of recombinant human N-terminal His6-tagged EphA2 (N598 to R890 residues) expressed in baculovirus using poly-EY as substrate after 180 mins by luciferase coupled chemiluminescence assay.
Assay [3] deals with T1, Ephrin type-B receptor 4 (Homo sapiens, UniProt P54760).
T1 sequence (P54760 whole entry): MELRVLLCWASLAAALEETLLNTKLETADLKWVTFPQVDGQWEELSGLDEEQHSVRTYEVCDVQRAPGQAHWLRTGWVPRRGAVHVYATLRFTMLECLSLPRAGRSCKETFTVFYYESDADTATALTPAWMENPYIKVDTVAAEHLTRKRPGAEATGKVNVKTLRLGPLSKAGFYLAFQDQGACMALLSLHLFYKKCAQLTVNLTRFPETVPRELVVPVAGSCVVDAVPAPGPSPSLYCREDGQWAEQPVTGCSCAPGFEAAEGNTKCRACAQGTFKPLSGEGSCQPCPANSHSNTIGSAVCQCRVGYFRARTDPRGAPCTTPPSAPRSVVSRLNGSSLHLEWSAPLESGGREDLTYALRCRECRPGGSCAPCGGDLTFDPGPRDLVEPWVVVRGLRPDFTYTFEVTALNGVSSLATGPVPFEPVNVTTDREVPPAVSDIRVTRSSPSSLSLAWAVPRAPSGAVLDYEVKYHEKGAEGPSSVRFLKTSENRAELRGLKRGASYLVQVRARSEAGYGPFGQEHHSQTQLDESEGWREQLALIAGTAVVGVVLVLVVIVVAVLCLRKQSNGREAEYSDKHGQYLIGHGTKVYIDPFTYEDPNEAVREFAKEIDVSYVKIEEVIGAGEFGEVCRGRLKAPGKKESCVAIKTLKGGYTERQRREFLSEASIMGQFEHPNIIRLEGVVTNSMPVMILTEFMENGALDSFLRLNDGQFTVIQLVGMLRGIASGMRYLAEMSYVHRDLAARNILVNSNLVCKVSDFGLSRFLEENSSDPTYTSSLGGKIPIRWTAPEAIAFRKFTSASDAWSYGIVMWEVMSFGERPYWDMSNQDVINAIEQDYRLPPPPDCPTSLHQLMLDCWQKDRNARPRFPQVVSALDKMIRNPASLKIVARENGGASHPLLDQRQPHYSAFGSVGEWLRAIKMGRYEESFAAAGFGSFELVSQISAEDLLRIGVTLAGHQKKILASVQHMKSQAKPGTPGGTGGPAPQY
Briefly: Inhibition of recombinant human N-terminal His6-tagged EphB4 kinase domain (E605 to E890 residues) expressed in baculovirus using poly-AEKY as substrate after 150 mins in presence of gamma33P-ATP by liquid scintillation spectrometry.

Assay [4] deals with Receptor tyrosine-protein kinase erbB-2 (Homo sapiens, UniProt P04626). Briefly: Inhibition of recombinant human N-terminal GST His6-tagged thrombin cleavage site-fused ErbB2 kinase domain (Q679 to V1255 residues) expressed in baculovirus infected insect Sf9 cells using biotinylated poly-EY as substrate after 60 mins by alphascreen assay.
Sequence of Receptor tyrosine-protein kinase erbB-2 (P04626 whole entry, the tested form may be a part): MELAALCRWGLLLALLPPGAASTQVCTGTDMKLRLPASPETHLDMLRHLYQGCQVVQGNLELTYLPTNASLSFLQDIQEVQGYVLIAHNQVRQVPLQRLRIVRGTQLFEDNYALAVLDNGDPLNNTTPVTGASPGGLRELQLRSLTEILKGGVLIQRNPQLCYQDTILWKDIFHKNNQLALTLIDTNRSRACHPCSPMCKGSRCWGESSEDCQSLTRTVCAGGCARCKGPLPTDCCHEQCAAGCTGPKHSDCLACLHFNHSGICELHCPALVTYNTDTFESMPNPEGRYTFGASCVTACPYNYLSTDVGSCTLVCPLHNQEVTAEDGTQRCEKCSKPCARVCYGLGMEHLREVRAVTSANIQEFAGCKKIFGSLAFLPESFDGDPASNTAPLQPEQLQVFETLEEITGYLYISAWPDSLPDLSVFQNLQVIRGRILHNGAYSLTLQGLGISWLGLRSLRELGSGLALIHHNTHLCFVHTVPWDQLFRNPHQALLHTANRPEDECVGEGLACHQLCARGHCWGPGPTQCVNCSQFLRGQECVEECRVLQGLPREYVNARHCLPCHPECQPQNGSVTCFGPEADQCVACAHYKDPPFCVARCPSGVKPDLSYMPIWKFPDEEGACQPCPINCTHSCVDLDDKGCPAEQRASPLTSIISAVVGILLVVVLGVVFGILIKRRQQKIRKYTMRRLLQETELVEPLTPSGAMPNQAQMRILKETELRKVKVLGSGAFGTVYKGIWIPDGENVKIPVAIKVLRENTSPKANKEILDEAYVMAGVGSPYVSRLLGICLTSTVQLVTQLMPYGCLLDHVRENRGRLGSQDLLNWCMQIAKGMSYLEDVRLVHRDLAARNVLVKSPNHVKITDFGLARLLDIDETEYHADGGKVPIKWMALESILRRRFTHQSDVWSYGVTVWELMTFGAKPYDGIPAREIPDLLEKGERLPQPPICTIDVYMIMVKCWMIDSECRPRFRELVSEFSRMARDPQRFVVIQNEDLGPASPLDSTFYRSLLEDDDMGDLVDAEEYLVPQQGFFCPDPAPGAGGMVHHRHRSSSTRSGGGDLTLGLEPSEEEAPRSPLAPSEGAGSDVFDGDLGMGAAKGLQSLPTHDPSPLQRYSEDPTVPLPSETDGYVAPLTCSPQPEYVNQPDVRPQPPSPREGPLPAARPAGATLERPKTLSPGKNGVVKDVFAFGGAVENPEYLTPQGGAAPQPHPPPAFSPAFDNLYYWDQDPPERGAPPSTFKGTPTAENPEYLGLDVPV

Sequence of Ephrin type-A receptor 2 (P29317 whole entry, the tested form may be a part): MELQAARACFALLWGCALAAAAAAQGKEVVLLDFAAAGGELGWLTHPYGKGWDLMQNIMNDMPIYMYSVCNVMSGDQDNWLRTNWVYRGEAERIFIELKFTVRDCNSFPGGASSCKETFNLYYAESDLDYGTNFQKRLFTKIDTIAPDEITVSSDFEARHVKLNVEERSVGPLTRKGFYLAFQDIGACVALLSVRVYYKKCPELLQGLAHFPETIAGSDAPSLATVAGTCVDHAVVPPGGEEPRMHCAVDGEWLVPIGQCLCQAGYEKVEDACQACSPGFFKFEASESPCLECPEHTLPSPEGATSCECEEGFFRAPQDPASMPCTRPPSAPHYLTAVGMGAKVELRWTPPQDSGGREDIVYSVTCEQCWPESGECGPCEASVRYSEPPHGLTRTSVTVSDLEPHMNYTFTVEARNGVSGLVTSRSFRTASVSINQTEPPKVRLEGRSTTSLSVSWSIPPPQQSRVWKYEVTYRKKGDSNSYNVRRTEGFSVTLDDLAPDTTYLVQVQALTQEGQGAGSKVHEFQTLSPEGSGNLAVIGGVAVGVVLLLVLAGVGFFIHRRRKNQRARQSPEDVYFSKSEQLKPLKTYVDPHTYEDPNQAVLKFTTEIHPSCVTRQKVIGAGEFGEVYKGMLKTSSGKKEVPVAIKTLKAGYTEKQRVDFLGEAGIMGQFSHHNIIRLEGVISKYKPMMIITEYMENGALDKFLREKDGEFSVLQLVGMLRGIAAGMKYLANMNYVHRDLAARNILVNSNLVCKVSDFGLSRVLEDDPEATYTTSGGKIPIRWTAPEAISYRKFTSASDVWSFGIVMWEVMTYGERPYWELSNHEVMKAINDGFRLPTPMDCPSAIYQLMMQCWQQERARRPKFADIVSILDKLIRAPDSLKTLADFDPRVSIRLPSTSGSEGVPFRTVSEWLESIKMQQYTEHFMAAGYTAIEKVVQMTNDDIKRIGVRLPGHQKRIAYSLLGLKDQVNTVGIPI
Sequence of Vascular endothelial growth factor receptor 2 (P35968 whole entry, the tested form may be a part): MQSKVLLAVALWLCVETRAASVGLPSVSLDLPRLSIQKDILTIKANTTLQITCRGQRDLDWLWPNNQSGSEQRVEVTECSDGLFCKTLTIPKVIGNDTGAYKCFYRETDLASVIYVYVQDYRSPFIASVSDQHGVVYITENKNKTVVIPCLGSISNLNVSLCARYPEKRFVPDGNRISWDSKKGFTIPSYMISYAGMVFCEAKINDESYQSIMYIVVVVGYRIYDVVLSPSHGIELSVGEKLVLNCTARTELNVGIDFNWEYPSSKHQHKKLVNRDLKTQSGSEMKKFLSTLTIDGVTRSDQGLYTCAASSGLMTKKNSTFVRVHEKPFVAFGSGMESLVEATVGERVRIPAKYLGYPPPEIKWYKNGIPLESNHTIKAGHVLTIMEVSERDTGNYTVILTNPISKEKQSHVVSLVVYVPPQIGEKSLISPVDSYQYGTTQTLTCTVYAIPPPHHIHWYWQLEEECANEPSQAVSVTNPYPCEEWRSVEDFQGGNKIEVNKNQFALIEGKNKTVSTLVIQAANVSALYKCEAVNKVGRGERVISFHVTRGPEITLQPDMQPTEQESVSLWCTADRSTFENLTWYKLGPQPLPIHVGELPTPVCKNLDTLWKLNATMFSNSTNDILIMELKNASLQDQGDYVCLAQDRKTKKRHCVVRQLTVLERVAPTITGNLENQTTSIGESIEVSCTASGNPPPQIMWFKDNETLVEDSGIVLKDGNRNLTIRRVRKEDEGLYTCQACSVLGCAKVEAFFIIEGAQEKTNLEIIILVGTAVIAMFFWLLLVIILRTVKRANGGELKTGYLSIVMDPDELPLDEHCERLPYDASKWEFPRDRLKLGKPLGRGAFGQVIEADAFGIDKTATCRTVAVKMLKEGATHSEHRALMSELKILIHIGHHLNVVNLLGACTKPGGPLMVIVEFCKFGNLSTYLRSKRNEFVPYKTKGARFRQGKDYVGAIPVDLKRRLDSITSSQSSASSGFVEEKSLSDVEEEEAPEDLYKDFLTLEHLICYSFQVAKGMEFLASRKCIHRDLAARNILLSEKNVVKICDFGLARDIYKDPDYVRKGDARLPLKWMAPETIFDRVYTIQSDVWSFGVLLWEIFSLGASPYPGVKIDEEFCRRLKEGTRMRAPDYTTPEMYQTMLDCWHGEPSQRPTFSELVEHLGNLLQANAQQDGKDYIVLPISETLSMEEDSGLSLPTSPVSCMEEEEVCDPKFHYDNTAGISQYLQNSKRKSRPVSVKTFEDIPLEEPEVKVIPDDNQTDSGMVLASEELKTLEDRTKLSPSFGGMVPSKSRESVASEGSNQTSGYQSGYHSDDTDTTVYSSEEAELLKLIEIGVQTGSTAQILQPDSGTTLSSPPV

A word on the IC50: it is the concentration that gives 50% inhibition. As for `COc1cc2c(Nc3ccc(Cl)c(Cl)c3)ncnc2cc1OCC1CN(S(C)(=O)=O)CCO1` (stereo not drawn), the half-inhibitory concentration (IC50) in assay [1] was 50 to 1000 nM; in assay [2], under 50 nM; in assay [3] it was under 50 nM; in assay [4] it was under 50 nM.

With `COc1cc2c(Nc3ccc(Br)cc3C)ncnc2cc1OCC1CN(C)CCO1` (stereo not drawn), the concentration for half-maximal inhibition (IC50) in assay [1], in assay [2] and in assay [3] was 50 to 1000 nM in each case.

Turning to `COc1cc2c(Nc3ccc(Cl)c(Cl)c3)ncnc2cc1OCC1CN(C(=O)CC(=O)O)CCO1` (stereo not drawn), the IC50 in assay [1], in assay [2] and in assay [3] was under 50 nM each time.

Turning to `COc1cc2c(Nc3ccc(Cl)c(Cl)c3)ncnc2cc1OCC1CN(C(N)=NC#N)CCO1` (stereo not drawn), the IC50 in assay [1], in assay [2], in assay [3] and in assay [4] was under 50 nM in each case.

Regarding `COc1cc2c(Nc3ccc(Cl)c(Br)c3)ncnc2cc1OCC1CN(C)CCO1` (stereo not drawn), the half-maximal inhibitory concentration (IC50) is 50 to 1000 nM in assay [1], 50 to 1000 nM in assay [2] and under 50 nM in assay [3].

With `COC(=O)CCC(=O)N1CCOC(COc2cc3ncnc(Nc4ccc(Cl)c(Cl)c4)c3cc2OC)C1` (stereo not drawn), the IC50 in assay [1], in assay [2] and in assay [3] was 50 to 1000 nM in each case.

For the compound `COc1cc2c(Nc3ccc(Cl)c(Cl)c3)ncnc2cc1OCC1CN(C(=O)c2cccc3ccccc23)CCO1` (stereo not drawn), the half-maximal inhibitory concentration (IC50) in assay [1] was 50 to 1000 nM; in assay [2], 1000 to 20000 nM; in assay [3] it was 50 to 1000 nM.

Regarding `COc1cc2c(Nc3cc(Cl)c(Cl)c(Cl)c3)ncnc2cc1OCC1CN(C)CCO1` (stereo not drawn), the concentration for half-maximal inhibition (IC50) in assay [1] is 50 to 1000 nM; in assay [2] it was 50 to 1000 nM; in assay [3], under 50 nM; in assay [4], 50 to 1000 nM.

On to `COc1cc2c(Nc3ccc(Cl)c(C)c3)ncnc2cc1OCC1CN(C)CCO1` (stereo not drawn), for which the IC50 in assay [1], in assay [2] and in assay [3] was 50 to 1000 nM in each case.

As to `COc1cc2c(Nc3ccc(Cl)c(Cl)c3)ncnc2cc1OCC1CN(C(=O)C(C)(C)C)CCO1` (stereo not drawn), the IC50 in assay [1], in assay [2] and in assay [3] was 50 to 1000 nM each time.

Consider `COc1cc2c(Nc3ccc(Br)cc3Cl)ncnc2cc1OCC1CN(C)CCO1` (stereo not drawn), for which the IC50 in assay [1], in assay [2] and in assay [3] was 50 to 1000 nM in each case.

On to `COc1cc2c(Nc3cccc(Cl)c3F)ncnc2cc1OCC1CN(/C(N)=N/C#N)CCCO1` (stereo not drawn), for which the half-inhibitory concentration (IC50) in assay [1] was 50 to 1000 nM; in assay [2], 50 to 1000 nM; in assay [3], under 50 nM; in assay [4] it was under 50 nM.

`COCCOc1cc2c(Nc3ccc(Cl)c(Cl)c3)ncnc2cc1OCC1CN(C)CCO1` (stereo not drawn): the figures for the half-inhibitory concentration (IC50) in assay [1], in assay [2] and in assay [3] were 50 to 1000 nM, 50 to 1000 nM and under 50 nM, respectively.

As for `COc1cc2c(Nc3ccc(Cl)c(Cl)c3)ncnc2cc1OCC1CNCC(C)(C)O1` (stereo not drawn), the concentration for half-maximal inhibition (IC50) in assay [1] is under 50 nM; in assay [3], 50 to 1000 nM; in assay [4], 50 to 1000 nM.

As to `COc1cc2c(Nc3ccc(C)c(Br)c3)ncnc2cc1OCC1CN(C)CCO1` (stereo not drawn), the IC50 was under 50 nM in assay [1], 50 to 1000 nM in assay [2], under 50 nM in assay [3] and 50 to 1000 nM in assay [4].

As for `COc1cc2c(Nc3ccc(Cl)c(Cl)c3)ncnc2cc1OCC1CN(CC(N)=O)CCO1` (stereo not drawn), the IC50 in assay [1] was 50 to 1000 nM; in assay [2], 50 to 1000 nM; in assay [3], under 50 nM; in assay [4], under 50 nM.

On to `CCOc1cc2c(Nc3ccc(Cl)c(Cl)c3)ncnc2cc1OCC1CNCCO1` (stereo not drawn), for which the IC50 in assay [1], in assay [3] and in assay [4] was under 50 nM each time.

As for `COc1cc2c(Nc3ccc(Cl)c(Cl)c3)ncnc2cc1OCC1CN(C(=O)CCc2ccccc2)CCO1` (stereo not drawn), the IC50 in assay [1], in assay [2] and in assay [3] was 50 to 1000 nM in each case.

Turning to `CCCCN1CCOC(COc2cc3ncnc(Nc4ccc(Cl)c(Cl)c4)c3cc2OC)C1` (stereo not drawn), the half-inhibitory concentration (IC50) in assay [1] is under 50 nM; in assay [2], 50 to 1000 nM; in assay [3] it was under 50 nM; in assay [4] it was 50 to 1000 nM.

Turning to `COc1cc2c(Nc3ccc(Cl)c(Cl)c3)ncnc2cc1OCC1CN(S(C)(=O)=O)CCCO1` (stereo not drawn), the 50% inhibitory concentration (IC50) was 50 to 1000 nM in assay [1], 50 to 1000 nM in assay [2], under 50 nM in assay [3] and under 50 nM in assay [4].

For the compound `COc1cc2c(Nc3ccc(Cl)c(Cl)c3)ncnc2cc1OCC1CN(C)CC(C)(C)O1` (stereo not drawn), the IC50 in assay [1], in assay [3] and in assay [4] was 50 to 1000 nM each time.

Regarding `COc1cc2c(Nc3ccc(Cl)c(Cl)c3)ncnc2cc1OCC1CN(C(=O)c2c(F)ccc(F)c2F)CCO1` (stereo not drawn), the IC50 in assay [1], in assay [2] and in assay [3] was 50 to 1000 nM throughout.

`COc1cc2c(Nc3ccc(Cl)c(Cl)c3)ncnc2cc1OCc1csc(C2CCCN(C)C2)n1` (stereo not drawn): the IC50 in assay [1], in assay [2], in assay [3] and in assay [4] was 50 to 1000 nM in each case.

Turning to `CCC1(C)CN(C)CC(COc2cc3ncnc(Nc4ccc(Cl)c(Cl)c4)c3cc2OC)O1` (stereo not drawn), the concentration for half-maximal inhibition (IC50) in assay [1], in assay [2] and in assay [3] was 50 to 1000 nM in each case.

For the compound `CCCCCC(=O)N1CCOC(COc2cc3ncnc(Nc4ccc(Cl)c(Cl)c4)c3cc2OC)C1` (stereo not drawn), the IC50 in assay [1], in assay [2] and in assay [3] was 50 to 1000 nM each time.

In the case of `COc1cc2c(Nc3ccc(Cl)c(Cl)c3)ncnc2cc1OCc1nc2c(s1)CN(C)CC2`, the IC50 is 50 to 1000 nM in assay [1], 50 to 1000 nM in assay [2], under 50 nM in assay [3] and under 50 nM in assay [4].

Turning to `COc1cc2c(Nc3ccc(Cl)c(Cl)c3Cl)ncnc2cc1OCC1CN(C)CCO1` (stereo not drawn), the half-inhibitory concentration (IC50) was under 50 nM in assay [1], under 50 nM in assay [2], under 50 nM in assay [3] and 50 to 1000 nM in assay [4].

Take `CCCCC(CC)C(=O)N1CCOC(COc2cc3ncnc(Nc4ccc(Cl)c(Cl)c4)c3cc2OC)C1` (stereo not drawn): the concentration for half-maximal inhibition (IC50) in assay [1], in assay [2] and in assay [3] was 50 to 1000 nM in each case.

For `CN1CCOC(COc2cc3ncnc(Nc4ccc(Cl)c(Cl)c4)c3cc2O)C1` (stereo not drawn), the half-maximal inhibitory concentration (IC50) in assay [1], in assay [2] and in assay [3] was 50 to 1000 nM each time.

Consider `COc1cc2c(Nc3ccc(Cl)c(Cl)c3)ncnc2cc1OCc1csc(N2CCN(C)CC2)n1`, for which the IC50 in assay [1], in assay [2], in assay [3] and in assay [4] was 50 to 1000 nM in each case.

Turning to `CCN1CCc2nc(COc3cc4ncnc(Nc5ccc(Cl)c(Cl)c5)c4cc3OC)sc2C1`, the half-inhibitory concentration (IC50) in assay [1] is 50 to 1000 nM; in assay [2], 50 to 1000 nM; in assay [3], under 50 nM; in assay [4], under 50 nM.

Consider `CCS(=O)(=O)N1CCOC(COc2cc3ncnc(Nc4ccc(Cl)c(Cl)c4)c3cc2OC)C1` (stereo not drawn), for which the half-maximal inhibitory concentration (IC50) in assay [1] was 50 to 1000 nM; in assay [2], under 50 nM; in assay [3], under 50 nM; in assay [4] it was under 50 nM.

As for `COc1cc2c(Nc3ccc(Cl)c(Cl)c3)ncnc2cc1OCC1CN(C(=O)c2ccc3c(c2)OCO3)CCO1` (stereo not drawn), the 50% inhibitory concentration (IC50) in assay [1], in assay [2] and in assay [3] was 50 to 1000 nM each time.

As for `COc1cc2c(Nc3ccc(Cl)c(Cl)c3)ncnc2cc1OCC1CN(C(=O)c2ccc(Cl)nc2)CCO1` (stereo not drawn), the IC50 was 50 to 1000 nM in assay [1], 50 to 1000 nM in assay [2] and under 50 nM in assay [3].

For the compound `COc1cc2c(Nc3ccc(Cl)c(Cl)c3)ncnc2cc1OCC1CN(C(=O)c2ccoc2)CCO1` (stereo not drawn), the 50% inhibitory concentration (IC50) is 50 to 1000 nM in assay [1], 50 to 1000 nM in assay [2] and under 50 nM in assay [3].

For the compound `COc1cc2c(Nc3ccc(Cl)c(Cl)c3)ncnc2cc1OCC1CN(/C(=N/C#N)N2CCN(C)CC2)CCO1` (stereo not drawn), the IC50 in assay [1] was under 50 nM; in assay [2] it was 50 to 1000 nM; in assay [3], under 50 nM.

In the case of `COc1cc2c(Nc3cccc(Br)c3Cl)ncnc2cc1OCC1CN(C)CCO1` (stereo not drawn), the results for the half-inhibitory concentration (IC50) in assay [1], in assay [2] and in assay [3] were 50 to 1000 nM, 50 to 1000 nM and under 50 nM, respectively.

Turning to `COCCNC(=NC#N)N1CCOC(COc2cc3ncnc(Nc4ccc(Cl)c(Cl)c4)c3cc2OC)C1` (stereo not drawn), the 50% inhibitory concentration (IC50) in assay [1] was 50 to 1000 nM; in assay [2], 50 to 1000 nM; in assay [3] it was under 50 nM.
